# Measured values as given in patent US20100184815A1 (priority 2008, published 2010).
# Legend:
# Assay type in all cases: cell-based
# Full Length hPPARβ/δ = target: T1, Full Length hPPARβ/δ (Homo sapiens, UniProt Q03181); assay: Full length hPPARβ/δ transfection assay; details: full length receptor; scale 1-5; read-out: Full Length hPPAR β/δ EC50 (scaled number)
# T1 construct: Full Length; expressed in transfected cells; host or cells: Cos cells
# T1 sequence (Q03181 1-441): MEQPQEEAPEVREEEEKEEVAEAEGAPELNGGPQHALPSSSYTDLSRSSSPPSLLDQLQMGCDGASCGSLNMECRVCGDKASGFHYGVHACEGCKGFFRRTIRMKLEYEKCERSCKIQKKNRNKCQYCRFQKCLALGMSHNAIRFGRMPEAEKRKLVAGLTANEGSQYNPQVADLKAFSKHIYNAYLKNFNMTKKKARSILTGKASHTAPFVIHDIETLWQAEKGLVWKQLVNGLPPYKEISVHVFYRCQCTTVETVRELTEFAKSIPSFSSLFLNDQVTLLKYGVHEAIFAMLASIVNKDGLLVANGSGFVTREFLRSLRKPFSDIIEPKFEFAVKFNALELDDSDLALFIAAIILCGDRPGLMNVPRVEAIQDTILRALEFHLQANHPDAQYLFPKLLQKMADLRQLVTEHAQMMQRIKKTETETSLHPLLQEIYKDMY
# Procedure: (§1) Transient transfection assays. Cos cells were seeded in 60-mm dishes at a density of 5.5×10^5 cells/dish in Dulbecco's modified Eagle's medium (DMEM) supplemented with 10% fetal calf serum (FCS) and incubated at 37° C. for 24 hours before transfection. Cells were transfected in Opti-MEM (Gibco; Invitrogen, Carlsbad, Calif.) without FCS for 3 hours at 37° C., using polyethylenimine, with reporter and expression plasmids. The plasmid pBluescript (Stratagene, La Jolla, Calif.) was used as carrier DNA to set the final amount of DNA to 5.5 μg/dish. The pCMV-b-galactosidase expression plasmid was cotransfected as a control for transfection efficiency. Transfection was stopped by the addition of DMEM supplemented with 10% FCS, and cells were then incubated at 37° C. After 16 hours, cells were trypsinized and seeded in 96-well plates at the density of 2×10^4 cells/well and incubated for 6 hours in 10% FCS-containing DMEM. Cells were then incubated for 24 hours in DMEM containing 0.2% FCS and increasing concentrations of the compound tested or vehicle (DMSO). At the end of the experiment, cells were washed once with ice-cold PBS, lysed and the luciferase and b-galactosidase assays were performed in a luminometer and spectrophotomer. Transfection efficiencies were normalized with the b-galactosidase activity assay. Half-maximal effective concentration (EC50) was estimated using Prism software (GraphPad). All transfection experiments were performed at least three times.
# (§2) In the following tables, proprietary compound EC50 values for hPPAR α, β, δ and γ are shown. The EC50 value is the concentration of a drug that induces a response halfway between the baseline and maximum, and is commonly used as a measure of drug potency. EC50 values are reported on a scale of 1 through 5, wherein the value scale is defined for each receptor as follows: […]
# Gal-4 hPPARα = target: T2, Gal-4 hPPARα (Homo sapiens, UniProt Q07869); assay: Gal4-hPPARα transient transfection reporter assay in Cos cells; details: luciferase reporter, 24 hours with compound, scale 1-5, read-out: Gal-4 hPPAR α EC50 (scaled number)
# T2 construct: Plasmids pGal4-hPPARα, pGal4-hPPARγ, pGal4-hPPARδ and pG5-TK-pGL3 were constructed as previously described by Staels, Bart, et al., Nature 1998 Jun; 25
# T2 sequence (Q07869 200-468 limits assumed): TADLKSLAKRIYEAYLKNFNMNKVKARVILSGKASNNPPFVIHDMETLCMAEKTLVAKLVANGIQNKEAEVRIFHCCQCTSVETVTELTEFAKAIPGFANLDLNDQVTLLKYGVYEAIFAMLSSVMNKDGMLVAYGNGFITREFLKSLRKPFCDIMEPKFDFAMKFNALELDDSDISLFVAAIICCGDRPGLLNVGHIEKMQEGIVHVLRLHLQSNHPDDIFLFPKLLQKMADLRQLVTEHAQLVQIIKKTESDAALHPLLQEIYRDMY
# Procedure, shortened: (§3)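 Cos cells transiently co-transfected with Gal4-hPPAR expression plasmid, pG5-TK-pGL3 luciferase reporter and β-galactosidase control, then treated 24 h with increasing compound concentrations in DMEM containing 0.2% FCS. Luciferase normalised to β-galactosidase; EC50 from curve fit, at least three experiments.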
# Full Length hPPARα = target: T3, Full Length hPPARα (Homo sapiens, UniProt Q07869); assay: Full length hPPARα transfection assay; details: full length receptor; read-out: Full Length hPPAR α EC50 (scaled number)
# T3 construct: Full Length; expressed in transfected cells; host or cells: Cos cells
# T3 sequence (Q07869 1-468): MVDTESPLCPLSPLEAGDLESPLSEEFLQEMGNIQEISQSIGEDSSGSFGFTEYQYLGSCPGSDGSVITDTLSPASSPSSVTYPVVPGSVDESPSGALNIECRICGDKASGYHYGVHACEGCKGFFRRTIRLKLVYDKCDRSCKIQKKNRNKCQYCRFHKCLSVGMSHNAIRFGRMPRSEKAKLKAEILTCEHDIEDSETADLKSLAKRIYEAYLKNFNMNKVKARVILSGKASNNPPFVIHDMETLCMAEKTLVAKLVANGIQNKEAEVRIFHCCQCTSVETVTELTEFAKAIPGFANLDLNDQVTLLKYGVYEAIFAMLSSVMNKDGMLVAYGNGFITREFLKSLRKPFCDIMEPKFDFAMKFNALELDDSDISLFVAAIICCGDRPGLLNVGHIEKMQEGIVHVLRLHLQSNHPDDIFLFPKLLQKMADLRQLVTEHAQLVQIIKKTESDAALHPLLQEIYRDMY
# Procedure: as §1, §2
# Gal-4 hPPARγ = target: T4, Gal-4 hPPARγ (Homo sapiens, UniProt P37231); assay: Gal4-hPPARγ transient transfection reporter assay in Cos cells; details: luciferase reporter, 24 hours with compound, scale 1-5, read-out: Gal-4 hPPAR γ EC50 (scaled number)
# T4 construct: Plasmids pGal4-hPPARα, pGal4-hPPARγ, pGal4-hPPARδ and pG5-TK-pGL3 were constructed as previously described by Staels, Bart, et al., Nature 1998 Jun; 25
# T4 sequence (P37231 238-505 limits assumed): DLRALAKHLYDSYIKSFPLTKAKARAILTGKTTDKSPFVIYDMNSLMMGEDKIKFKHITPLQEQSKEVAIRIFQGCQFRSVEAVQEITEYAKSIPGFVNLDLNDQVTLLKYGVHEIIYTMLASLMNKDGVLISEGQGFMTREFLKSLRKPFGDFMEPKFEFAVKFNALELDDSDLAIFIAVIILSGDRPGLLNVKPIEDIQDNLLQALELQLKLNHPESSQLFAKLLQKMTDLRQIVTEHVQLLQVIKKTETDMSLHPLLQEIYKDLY
# Procedure, shortened: as §3
# Full Length hPPARγ = target: T5, Full Length hPPARγ (Homo sapiens, UniProt P37231); assay: Full length hPPARγ transfection assay; details: full length receptor; scale 1-5; read-out: Full Length hPPAR γ EC50 (scaled number)
# T5 construct: Full Length; expressed in transfected cells; host or cells: Cos cells
# T5 sequence (P37231 1-505): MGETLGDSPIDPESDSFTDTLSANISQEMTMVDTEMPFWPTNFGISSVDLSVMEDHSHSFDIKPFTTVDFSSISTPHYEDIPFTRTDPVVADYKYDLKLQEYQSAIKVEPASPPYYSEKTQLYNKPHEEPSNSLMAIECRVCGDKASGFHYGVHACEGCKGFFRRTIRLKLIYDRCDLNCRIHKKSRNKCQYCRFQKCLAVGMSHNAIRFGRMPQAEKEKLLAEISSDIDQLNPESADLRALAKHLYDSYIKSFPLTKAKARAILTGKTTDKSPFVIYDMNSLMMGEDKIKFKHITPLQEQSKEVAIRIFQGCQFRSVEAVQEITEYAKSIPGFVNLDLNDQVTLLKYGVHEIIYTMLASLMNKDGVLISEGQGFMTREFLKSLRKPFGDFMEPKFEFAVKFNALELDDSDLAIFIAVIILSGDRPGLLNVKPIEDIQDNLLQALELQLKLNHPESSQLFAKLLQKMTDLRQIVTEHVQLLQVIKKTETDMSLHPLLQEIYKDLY
# Procedure: as §1, §2
# Gal-4 hPPARβ/δ = target: T6, Gal-4 hPPARβ/δ (Homo sapiens, UniProt Q03181); assay: Gal4-hPPARδ transient transfection reporter assay in Cos cells; details: luciferase reporter, 24 hours with compound, scale 1-5, read-out: Gal-4 hPPAR β/δ EC50 (scaled number)
# T6 construct: Plasmids pGal4-hPPARα, pGal4-hPPARγ, pGal4-hPPARδ and pG5-TK-pGL3 were constructed as previously described by Staels, Bart, et al., Nature 1998 Jun; 25
# T6 sequence (Q03181 171-441 limits assumed): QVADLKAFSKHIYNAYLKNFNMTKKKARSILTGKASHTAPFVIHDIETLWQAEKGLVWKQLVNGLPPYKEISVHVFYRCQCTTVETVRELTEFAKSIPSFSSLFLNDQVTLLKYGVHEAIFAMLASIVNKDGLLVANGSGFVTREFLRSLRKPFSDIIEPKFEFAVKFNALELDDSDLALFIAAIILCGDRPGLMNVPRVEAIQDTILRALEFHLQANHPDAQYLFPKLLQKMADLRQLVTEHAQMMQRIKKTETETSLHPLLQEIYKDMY
# Procedure, shortened: as §3
EC50 (Full Length hPPARβ/δ) [nM],EC50 (Gal-4 hPPARα) [nM],EC50 (Full Length hPPARα) [nM],EC50 (Gal-4 hPPARγ) [nM],EC50 (Full Length hPPARγ) [nM],EC50 (Gal-4 hPPARβ/δ) [nM],SMILES
> 1000,1 to 50,< 1,> 1000,51 to 200,> 1000,"Cn1nc(-c2ccccc2)cc1COC(=O)c1ccc(SC(C)(C)C(=O)O)cc1 [Compound 1, 2-methyl-2-(4-(((1-methyl-3-phenyl-1H-pyrazol-5-yl)methoxy)carbonyl)phenylthio)propanoic acid]"
,51 to 200,1 to 50,> 1000,201 to 999,> 1000,"CC(C)c1ccc(-n2cc(COC(=O)c3ccc(SC(C)(C)C(=O)O)cc3)nn2)cc1 [Compound 56, 2-(4-(((1-(4-isopropylphenyl)-1H-1,2,3-triazol-4-yl)methoxy)carbonyl)phenylthio)-2-methylpropanoic acid]"
,< 1,< 1,51 to 200,51 to 200,> 1000,"CCCCCCCn1c(COC(=O)c2ccc(OC(C)(C)C(=O)O)c(OC)c2)nn(Cc2ccc(C(C)(C)C)cc2)c1=O [Compound 212, 2-(4-(((1-(4-tert-butylbenzyl)-4-heptyl-5-oxo-4,5-dihydro-1H-1,2,4-triazol-3-yl)methoxy)carbonyl)-2-methoxyphenoxy)-2-methylpropanoic acid]"
,1 to 50,< 1,> 1000,,> 1000,"CCCCCCn1c(COC(=O)c2ccc(OC(C)(C)C(=O)O)c(OC)c2)nn(Cc2ccc(C(C)(C)C)cc2)c1=O [Compound 185, 2-(4-(((1-(4-tert-butylbenzyl)-4-hexyl-5-oxo-4,5-dihydro-1H-1,2,4-triazol-3-yl)methoxy)carbonyl)-2-methoxyphenoxy)-2-methylpropanoic acid]"
,201 to 999,51 to 200,> 1000,> 1000,> 1000,"CCCn1c(COC(=O)c2ccc(OC(C)(C)C(=O)O)cc2)nn(Cc2ccc(OC(F)(F)F)cc2)c1=O [Compound 168, 2-methyl-2-(4-(((5-oxo-4-propyl-1-(4-(trifluoromethoxy)benzyl)-4,5-dihydro-1H-1,2,4-triazol-3-yl)methoxy)carbonyl)phenoxy)propanoic acid]"
